Experimental data: patent US9469650B2, “Melampomagnolide B derivatives” (BOARD OF TRUSTEES OF THE UNIVERSITY OF ARKANSAS, priority 2013, dated 2016)
Read-outs that look alike come from different tables or passages of the source.

What was measured:
PC-3 = test: panel of 60 human tumor cell lines, growth inhibition (Prostate Cancer); conditions: Homo sapiens
SF-539 = test: panel of 60 human tumor cell lines, growth inhibition (CNS Cancer); conditions: Homo sapiens
CAKI-1 = test: panel of 60 human tumor cell lines, growth inhibition (Renal Cancer); conditions: Homo sapiens
COLO 205 = test: panel of 60 human tumor cell lines, growth inhibition (Colon Cancer); conditions: Homo sapiens
NCI-H23 = test: panel of 60 human tumor cell lines, growth inhibition (Non-Small Cell Lung Cancer); conditions: Homo sapiens
KM12 = test: panel of 60 human tumor cell lines, growth inhibition (Colon Cancer)
A498 = test: panel of 60 human tumor cell lines, growth inhibition (Renal Cancer); conditions: Homo sapiens
SK-MEL-28 = test: panel of 60 human tumor cell lines, growth inhibition (Melanoma); conditions: Homo sapiens
IGROV1 = test: panel of 60 human tumor cell lines, growth inhibition (Ovarian Cancer); conditions: Homo sapiens
UACC-62 = test: panel of 60 human tumor cell lines, growth inhibition (Melanoma); conditions: Homo sapiens
SK-MEL-2 = test: as above; conditions: Homo sapiens
NCI/ADR-RES = test: panel of 60 human tumor cell lines, growth inhibition (Ovarian Cancer); conditions: Homo sapiens
DU-145 = test: panel of 60 human tumor cell lines, growth inhibition (Prostate Cancer); conditions: Homo sapiens
MOLT-4 = test: panel of 60 human tumor cell lines, growth inhibition (Leukemia); conditions: Homo sapiens
MDA-MB-468 = test: panel of 60 human tumor cell lines, growth inhibition (Breast Cancer); conditions: Homo sapiens
RXF 393 = test: panel of 60 human tumor cell lines, growth inhibition (Renal Cancer); conditions: Homo sapiens
SNB-19 = test: panel of 60 human tumor cell lines, growth inhibition (CNS Cancer); conditions: Homo sapiens
HOP-92 = test: panel of 60 human tumor cell lines, growth inhibition (Non-Small Cell Lung Cancer); conditions: Homo sapiens

**Q.** With `C=C1C(=O)O[C@H]2[C@H]1CC/C(COC(=S)n1ccnc1)=C\CC[C@@]1(C)O[C@@H]21` [JVM 66] as the compound, how does the “Percent Growth” value (HL-60(TB); Log10 Concentration −4.0) read?
**A.** −62%

**Q.** And the “Percent Growth” value (HL-60(TB); Log10 Concentration −5.0)?
**A.** 16%

**Q.** What about the “Percent Growth” value (HL-60(TB); Log10 Concentration −6.0) of the same compound?
**A.** 102%

**Q.** And the “Percent Growth” value (HL-60(TB); Log10 Concentration −7.0)?
**A.** 101%

**Q.** And the “Percent Growth” value (HL-60(TB); Log10 Concentration −8.0)?
**A.** 95%

**Q.** What about the GI50 (PC-3; PC-3) of the same compound?
**A.** 12 µM

**Q.** What about the CC50 (PC-3; PC-3, read-out: LC50) of the same compound?
**A.** > 100 µM

**Q.** What about the IC (TGI) (PC-3; PC-3, read-out: TGI) of the same compound?
**A.** 66.6 µM

**Q.** What about the GI50 (SF-539; SF-539) of the same compound?
**A.** 16.7 µM

**Q.** And the CC50 (SF-539; SF-539, read-out: LC50)?
**A.** 69.1 µM

**Q.** What about the IC (TGI) (SF-539; SF-539, read-out: TGI) of the same compound?
**A.** 34 µM

**Q.** What about the GI50 (CAKI-1; CAKI-1) of the same compound?
**A.** 12.6 µM

**Q.** What about the CC50 (CAKI-1; CAKI-1, read-out: LC50) of the same compound?
**A.** 73.8 µM

**Q.** And the IC (TGI) (CAKI-1; CAKI-1, read-out: TGI)?
**A.** 30.5 µM

**Q.** What about the GI50 (COLO 205; COLO 205) of the same compound?
**A.** 12.3 µM

**Q.** And the CC50 (COLO 205; COLO 205, read-out: LC50)?
**A.** 61.9 µM

**Q.** What about the IC (TGI) (COLO 205; COLO 205, read-out: TGI) of the same compound?
**A.** 27.6 µM

**Q.** What about the GI50 (NCI-H23; NCI-H23) of the same compound?
**A.** 13.5 µM

**Q.** What about the CC50 (NCI-H23; NCI-H23, read-out: LC50) of the same compound?
**A.** > 100 µM

**Q.** And the IC (TGI) (NCI-H23; NCI-H23, read-out: TGI)?
**A.** 59.8 µM

**Q.** What about the GI50 (KM12; Homo sapiens, KM12) of the same compound?
**A.** > 100 µM

**Q.** What about the CC50 (KM12; Homo sapiens, KM12, read-out: LC50) of the same compound?
**A.** > 100 µM

**Q.** What about the “Percent Growth” value (KM12; KM12, Log10 Concentration −4.0) of the same compound?
**A.** 60%

**Q.** What about the “Percent Growth” value (KM12; KM12, Log10 Concentration −5.0) of the same compound?
**A.** 99%

**Q.** What about the “Percent Growth” value (KM12; KM12, Log10 Concentration −6.0) of the same compound?
**A.** 99%

**Q.** And the “Percent Growth” value (KM12; KM12, Log10 Concentration −7.0)?
**A.** 102%

**Q.** And the “Percent Growth” value (KM12; KM12, Log10 Concentration −8.0)?
**A.** 100%

**Q.** What about the TGI (KM12; KM12, NCI five dose) of the same compound?
**A.** >1.00E−4

**Q.** What about the GI50 (A498; A498) of the same compound?
**A.** 14.5 µM

**Q.** And the CC50 (A498; A498, read-out: LC50)?
**A.** > 100 µM

**Q.** And the IC (TGI) (A498; A498, read-out: TGI)?
**A.** 65.5 µM

**Q.** What about the GI50 (SK-MEL-28; SK-MEL-28) of the same compound?
**A.** 15.7 µM

**Q.** And the CC50 (SK-MEL-28; SK-MEL-28, read-out: LC50)?
**A.** 99.3 µM

**Q.** And the IC (TGI) (SK-MEL-28; SK-MEL-28, read-out: TGI)?
**A.** 39.5 µM

**Q.** And the GI50 (IGROV1; IGROV-1)?
**A.** 9.04 µM

**Q.** What about the CC50 (IGROV1; IGROV-1, read-out: LC50) of the same compound?
**A.** > 100 µM

**Q.** What about the GI50 (UACC-62; UACC-62) of the same compound?
**A.** 13.9 µM

**Q.** What about the CC50 (UACC-62; UACC-62, read-out: LC50) of the same compound?
**A.** 74.8 µM

**Q.** And the IC (TGI) (UACC-62; UACC-62, read-out: TGI)?
**A.** 32.3 µM

**Q.** And the GI50 (SK-MEL-2; SK-MEL-2)?
**A.** 16.4 µM

**Q.** And the CC50 (SK-MEL-2; SK-MEL-2, read-out: LC50)?
**A.** 93 µM

**Q.** And the IC (TGI) (SK-MEL-2; SK-MEL-2, read-out: TGI)?
**A.** 39.6 µM

**Q.** What about the GI50 (NCI/ADR-RES) of the same compound?
**A.** 30.1 µM

**Q.** And the CC50 (NCI/ADR-RES; read-out: LC50)?
**A.** > 100 µM

**Q.** What about the IC (TGI) (NCI/ADR-RES; read-out: TGI) of the same compound?
**A.** > 100 µM

**Q.** And the GI50 (DU-145; DU-145)?
**A.** 12.2 µM

**Q.** And the CC50 (DU-145; DU-145, read-out: LC50)?
**A.** 59.1 µM

**Q.** What about the IC (TGI) (DU-145; DU-145, read-out: TGI) of the same compound?
**A.** 26.9 µM

**Q.** What about the GI50 (MOLT-4; MOLT-4) of the same compound?
**A.** 6.38 µM

**Q.** What about the CC50 (MOLT-4; MOLT-4, read-out: LC50) of the same compound?
**A.** > 100 µM

**Q.** What about the IC (TGI) (MOLT-4; MOLT-4, read-out: TGI) of the same compound?
**A.** 34.4 µM

**Q.** What about the GI50 (MDA-MB-468; MDA-MB-468) of the same compound?
**A.** 3.55 µM

**Q.** What about the CC50 (MDA-MB-468; MDA-MB-468, read-out: LC50) of the same compound?
**A.** > 100 µM

**Q.** And the IC (TGI) (MDA-MB-468; MDA-MB-468, read-out: TGI)?
**A.** 28.5 µM

**Q.** What about the GI50 (RXF 393; RXF 393, RXF 393, NCI five dose) of the same compound?
**A.** 3.08 µM

**Q.** And the CC50 (RXF 393; RXF 393, read-out: LC50)?
**A.** 57.4 µM

**Q.** And the IC (TGI) (RXF 393; RXF 393, read-out: TGI)?
**A.** 11.4 µM

**Q.** And the GI50 (SNB-19; SNB-19)?
**A.** 54.3 µM

**Q.** What about the CC50 (SNB-19; SNB-19, read-out: LC50) of the same compound?
**A.** > 100 µM

**Q.** And the IC (TGI) (SNB-19; SNB-19, read-out: TGI)?
**A.** > 100 µM

**Q.** What about the GI50 (HOP-92; HOP-92, HOP-92, NCI five dose) of the same compound?
**A.** 6.83 µM

**Q.** And the CC50 (HOP-92; HOP-92, read-out: LC50)?
**A.** 83.2 µM

**Q.** What about the IC (TGI) (HOP-92; HOP-92, read-out: TGI) of the same compound?
**A.** 26.9 µM
